Tests used:
clinical MRSA ST239 = assay: Mouse pneumonia model, ST239 (neutropenic mice); assay type: in vivo, Balb/c mice; settings: ST239; 48 h; 1 also died in control
[1] = tested on: human peripheral blood mononuclear cells (PBMC); assay: XTT cytotoxicity testing; assay type: cell-based; settings: 2-64 μg/ml, vs drug free control
Method: The plates were maintained in a 37° C. incubator.
The cytotoxicity of kuraridin and its analogues were determined by the sodium 3′-[1-(phenylaminocarbonyl)-3,4-tetrazolium]-bis (4-methoxy-6-nitro) benzene sulfonic acid hydrate (XTT) assay.
Serial dilutions of the compounds ranging 2-64 μg/ml were incubated with PBMCs at 37° C. for 72 hrs.

O=C(O[C@@H]1Cc2c(O)cc(O)cc2O[C@@H]1c1ccc(O)c(O)c1)c1cc(O)c(O)c(O)c1 [ECG, epicatechin gallate]
mice died (clinical MRSA ST239): 1 mouse
Cellular toxicity (XTT assay) [1]: not toxic

Reference: patent US11690810B2, “Combination treatment of bacterial infection” (The Chinese University of Hong Kong, priority 2018, dated 2023)
